According to ChEMBL document CHEMBL1144189, “Novel and potent oxazolidinone antibacterials featuring 3-indolylglyoxamide substituents” (Bioorg Med Chem Lett, 2008):
In brackets after ≈: the same amount, converted by molar mass.

Assays:
[1] = system: Staphylococcus aureus; assay: Antibacterial activity against methicillin-susceptible Staphylococcus aureus DRCC 035; assay type: functional
[2] = system: Staphylococcus aureus; assay: Antibacterial activity against methicillin-resistant Staphylococcus aureus DRCC 019; assay type: functional
[3] = system: Enterococcus faecalis; assay: Antibacterial activity against vancomycin-susceptible Enterococcus faecalis DRCC 034; assay type: functional
[4] = system: Enterococcus faecalis; assay: Antibacterial activity against vancomycin-resistant Enterococcus faecalis DRCC 153; assay type: functional
[5] = system: Enterococcus faecium; assay: Antibacterial activity against vancomycin-resistant Enterococcus faecium DRCC 154; assay type: functional
[6] = system: Haemophilus influenzae; assay: Antibacterial activity against beta-lactamase deficient Haemophilus influenzae DRCC 433; assay type: functional
[7] = system: Staphylococcus aureus; assay: Antibacterial activity against Staphylococcus aureus DRCC 035 infected mouse systemic infection model administered orally for 1 day at 1 and 5 hrs post-infection and measured daily for 5 days; assay type: functional; settings: po
[8] = system: Staphylococcus aureus; assay: Antibacterial activity against linezolid-resistant Staphylococcus aureus DRCC 564; assay type: functional
[9] = system: Enterococcus faecalis; assay: Antibacterial activity against linezolid-resistant Enterococcus faecalis DRCC 632; assay type: functional
[10] = system: Moraxella catarrhalis; assay: Antibacterial activity against beta-lactamase deficient Moraxella catarrhalis DRCC 300; assay type: functional
[11] = AUC (0 to t) in Swiss albino mouse at 10 mg/kg, po; assay type: ADME, organism-based; design: dose 10 mg/kg, route oral; settings: plasma
[12] = Tmax in Swiss albino mouse at 10 mg/kg, po; assay type: ADME, organism-based; design: dose 10 mg/kg, route oral; settings: in vivo
[13] = Cmax in Swiss albino mouse at 10 mg/kg, po; assay type: ADME, organism-based; design: dose 10 mg/kg, route oral; settings: in vivo
[14] = Half life in Swiss albino mouse at 10 mg/kg, po; assay type: ADME, organism-based; design: dose 10 mg/kg, route oral; settings: in vivo
[15] = Drug elimination in Swiss albino mouse at 10 mg/kg, po; assay type: ADME, organism-based; design: dose 10 mg/kg, route oral; settings: in vivo

CC(=O)NC[C@H]1CN(c2ccc(N3CCN(C(=O)C(=O)c4c[nH]c5ccccc45)CC3)c(F)c2)C(=O)O1
MIC [1]: 1 µg/mL (≈ 1.97 µM)
MIC [2]: 1 µg/mL (≈ 1.97 µM)
MIC [3]: 1 µg/mL (≈ 1.97 µM)
MIC [4]: 1 µg/mL (≈ 1.97 µM)
MIC [5]: 1 µg/mL (≈ 1.97 µM)
MIC [6]: 16 µg/mL (≈ 31.5 µM)
ED50 [7]: 19.4 mg/kg

CC(=S)NC[C@H]1CN(c2ccc(N3CCN(C(=O)C(=O)c4c[nH]c5ccc(Br)cc45)CC3)c(F)c2)C(=O)O1
MIC [1]: 0.5 µg/mL (≈ 0.83 µM)
MIC [2]: 0.25 µg/mL (≈ 0.415 µM)
MIC [8]: 2 µg/mL (≈ 3.32 µM)
MIC [3]: 0.5 µg/mL (≈ 0.83 µM)
MIC [4]: 0.12 µg/mL (≈ 0.199 µM)
MIC [5]: 0.25 µg/mL (≈ 0.415 µM)
MIC [9]: 2 µg/mL (≈ 3.32 µM)
MIC [10]: 2 µg/mL (≈ 3.32 µM)
MIC [6]: > 32 µg/mL
ED50 [7]: > 30 mg/kg

O=C(C(=O)N1CCN(c2ccc(N3C[C@H](CNC(=O)C(F)F)OC3=O)cc2F)CC1)c1c[nH]c2ccc(Br)cc12
MIC [1]: 2 µg/mL (≈ 3.21 µM)
MIC [2]: 1 µg/mL (≈ 1.61 µM)
MIC [8]: 4 µg/mL (≈ 6.43 µM)
MIC [3]: 1 µg/mL (≈ 1.61 µM)
MIC [4]: 0.25 µg/mL (≈ 0.402 µM)
MIC [5]: 0.5 µg/mL (≈ 0.803 µM)
MIC [9]: 4 µg/mL (≈ 6.43 µM)
MIC [10]: 2 µg/mL (≈ 3.21 µM)
MIC [6]: > 32 µg/mL
ED50 [7]: > 30 mg/kg

CC(=O)NC[C@H]1CN(c2ccc(N3CCN(C(=O)C(=O)c4c[nH]c5ccc(Br)cc45)CC3)c(F)c2)C(=O)O1
MIC [1]: 1 µg/mL (≈ 1.71 µM)
MIC [2]: 0.5 µg/mL (≈ 0.853 µM)
MIC [8]: 8 µg/mL (≈ 13.6 µM)
MIC [3]: 1 µg/mL (≈ 1.71 µM)
MIC [4]: 0.5 µg/mL (≈ 0.853 µM)
MIC [5]: 1 µg/mL (≈ 1.71 µM)
MIC [9]: 8 µg/mL (≈ 13.6 µM)
MIC [10]: 2 µg/mL (≈ 3.41 µM)
MIC [6]: > 32 µg/mL
ED50 [7]: 27 mg/kg
AUC(0-t) [11]: 2250 ng·h/mL
Tmax [12]: 2 h
Cmax [13]: 680 ng/mL
half-life [14]: 2.17 h
k el [15]: 8.89e-05 s⁻¹

CC(=O)NC[C@H]1CN(c2ccc(N3CCN(C(=O)C(=O)c4c(C)[nH]c5ccccc45)CC3)c(F)c2)C(=O)O1
MIC [1]: 2 µg/mL (≈ 3.83 µM)
MIC [2]: 1 µg/mL (≈ 1.92 µM)
MIC [3]: 1 µg/mL (≈ 1.92 µM)
MIC [4]: 1 µg/mL (≈ 1.92 µM)
MIC [5]: 2 µg/mL (≈ 3.83 µM)
MIC [6]: > 32 µg/mL

O=C(C(=O)N1CCN(c2ccc(N3C[C@H](CNC(=O)C4CC4)OC3=O)cc2F)CC1)c1c[nH]c2ccc(Br)cc12
MIC [1]: 1 µg/mL (≈ 1.63 µM)
MIC [2]: 2 µg/mL (≈ 3.27 µM)
MIC [8]: 8 µg/mL (≈ 13.1 µM)
MIC [3]: 2 µg/mL (≈ 3.27 µM)
MIC [4]: 1 µg/mL (≈ 1.63 µM)
MIC [5]: 2 µg/mL (≈ 3.27 µM)
MIC [9]: 8 µg/mL (≈ 13.1 µM)
MIC [10]: 4 µg/mL (≈ 6.53 µM)
MIC [6]: > 32 µg/mL
ED50 [7]: 18.9 mg/kg
AUC(0-t) [11]: 1260 ng·h/mL
Tmax [12]: 2 h
Cmax [13]: 300 ng/mL
half-life [14]: 1.13 h
k el [15]: 0.000169 s⁻¹

CC(=O)NC[C@H]1CN(c2ccc(N3CCN(C(=O)C(=O)c4c[nH]c5ncccc45)CC3)c(F)c2)C(=O)O1
MIC [1]: 2 µg/mL (≈ 3.93 µM)
MIC [2]: 1 µg/mL (≈ 1.97 µM)
MIC [3]: 1 µg/mL (≈ 1.97 µM)
MIC [4]: 0.5 µg/mL (≈ 0.983 µM)
MIC [5]: 1 µg/mL (≈ 1.97 µM)
MIC [6]: > 32 µg/mL
ED50 [7]: > 30 mg/kg
AUC(0-t) [11]: 3360 ng·h/mL
Tmax [12]: 0.5 h
Cmax [13]: 1050 ng/mL
half-life [14]: 0.87 h
k el [15]: 0.000219 s⁻¹

COC(=S)NC[C@H]1CN(c2ccc(N3CCN(C(=O)C(=O)c4c[nH]c5ccc(Br)cc45)CC3)c(F)c2)C(=O)O1
MIC [1]: 1 µg/mL (≈ 1.62 µM)
MIC [2]: 1 µg/mL (≈ 1.62 µM)
MIC [8]: 2 µg/mL (≈ 3.23 µM)
MIC [3]: 1 µg/mL (≈ 1.62 µM)
MIC [4]: 0.5 µg/mL (≈ 0.808 µM)
MIC [5]: 1 µg/mL (≈ 1.62 µM)
MIC [9]: 2 µg/mL (≈ 3.23 µM)
MIC [10]: 1 µg/mL (≈ 1.62 µM)
MIC [6]: > 32 µg/mL
ED50 [7]: > 30 mg/kg

CC(=O)NC[C@H]1CN(c2ccc(N3CCN(C(=O)C(=O)c4c[nH]c5ccc([N+](=O)[O-])cc45)CC3)c(F)c2)C(=O)O1
MIC [1]: 2 µg/mL (≈ 3.62 µM)
MIC [2]: 1 µg/mL (≈ 1.81 µM)
MIC [3]: 1 µg/mL (≈ 1.81 µM)
MIC [4]: 1 µg/mL (≈ 1.81 µM)
MIC [5]: 2 µg/mL (≈ 3.62 µM)
MIC [6]: > 32 µg/mL

O=C(C(=O)N1CCN(c2ccc(N3C[C@H](CNC(=O)C(Cl)Cl)OC3=O)cc2F)CC1)c1c[nH]c2ccc(Br)cc12
MIC [1]: 1 µg/mL (≈ 1.53 µM)
MIC [2]: 1 µg/mL (≈ 1.53 µM)
MIC [8]: 4 µg/mL (≈ 6.1 µM)
MIC [3]: 1 µg/mL (≈ 1.53 µM)
MIC [4]: 0.25 µg/mL (≈ 0.381 µM)
MIC [5]: 0.5 µg/mL (≈ 0.763 µM)
MIC [9]: 4 µg/mL (≈ 6.1 µM)
MIC [10]: 2 µg/mL (≈ 3.05 µM)
MIC [6]: > 32 µg/mL
ED50 [7]: > 30 mg/kg

CC(=O)NC[C@H]1CN(c2ccc(N3CCN(C(=O)C(=O)c4cn(C)c5ccccc45)CC3)c(F)c2)C(=O)O1
MIC [1]: 2 µg/mL (≈ 3.83 µM)
MIC [2]: 1 µg/mL (≈ 1.92 µM)
MIC [3]: 1 µg/mL (≈ 1.92 µM)
MIC [4]: 1 µg/mL (≈ 1.92 µM)
MIC [5]: 2 µg/mL (≈ 3.83 µM)
MIC [6]: > 32 µg/mL

COC(=O)NC[C@H]1CN(c2ccc(N3CCN(C(=O)C(=O)c4c[nH]c5ccc(Br)cc45)CC3)c(F)c2)C(=O)O1
MIC [1]: 1 µg/mL (≈ 1.66 µM)
MIC [2]: 0.5 µg/mL (≈ 0.83 µM)
MIC [8]: 16 µg/mL (≈ 26.6 µM)
MIC [3]: 1 µg/mL (≈ 1.66 µM)
MIC [4]: 0.5 µg/mL (≈ 0.83 µM)
MIC [5]: 1 µg/mL (≈ 1.66 µM)
MIC [9]: 32 µg/mL (≈ 53.1 µM)
MIC [10]: 2 µg/mL (≈ 3.32 µM)
MIC [6]: > 32 µg/mL

O=C(C(=O)N1CCN(c2ccc(N3C[C@H](Cn4ccnn4)OC3=O)cc2F)CC1)c1c[nH]c2ccc(Br)cc12
MIC [1]: 2 µg/mL (≈ 3.35 µM)
MIC [2]: 0.5 µg/mL (≈ 0.838 µM)
MIC [8]: 8 µg/mL (≈ 13.4 µM)
MIC [3]: 1 µg/mL (≈ 1.68 µM)
MIC [4]: 0.5 µg/mL (≈ 0.838 µM)
MIC [5]: 0.5 µg/mL (≈ 0.838 µM)
MIC [9]: 16 µg/mL (≈ 26.8 µM)
MIC [10]: 4 µg/mL (≈ 6.71 µM)
MIC [6]: > 32 µg/mL
ED50 [7]: 28.9 mg/kg

O=C(C(=O)N1CCN(c2ccc(N3C[C@H](COc4ccon4)OC3=O)cc2F)CC1)c1c[nH]c2ccc(Br)cc12
MIC [1]: > 32 µg/mL
MIC [2]: 32 µg/mL (≈ 52.3 µM)
MIC [8]: 32 µg/mL (≈ 52.3 µM)
MIC [3]: 32 µg/mL (≈ 52.3 µM)
MIC [4]: 32 µg/mL (≈ 52.3 µM)
MIC [5]: > 32 µg/mL
MIC [9]: 32 µg/mL (≈ 52.3 µM)
MIC [10]: 32 µg/mL (≈ 52.3 µM)
MIC [6]: > 32 µg/mL

CC(=O)NC[C@H]1CN(c2ccc(N3CCN(C(=O)C(=O)c4c[nH]c5ccc(C#N)cc45)CC3)c(F)c2)C(=O)O1
MIC [1]: 1 µg/mL (≈ 1.88 µM)
MIC [2]: 1 µg/mL (≈ 1.88 µM)
MIC [3]: 1 µg/mL (≈ 1.88 µM)
MIC [4]: 0.5 µg/mL (≈ 0.939 µM)
MIC [5]: 1 µg/mL (≈ 1.88 µM)
MIC [6]: > 32 µg/mL
ED50 [7]: > 30 mg/kg
AUC(0-t) [11]: 1900 ng·h/mL
Tmax [12]: 3 h
Cmax [13]: 430 ng/mL
half-life [14]: 1.19 h
k el [15]: 0.000161 s⁻¹

COc1ccc2[nH]cc(C(=O)C(=O)N3CCN(c4ccc(N5C[C@H](CNC(C)=O)OC5=O)cc4F)CC3)c2c1
MIC [1]: 2 µg/mL (≈ 3.72 µM)
MIC [2]: 1 µg/mL (≈ 1.86 µM)
MIC [3]: 1 µg/mL (≈ 1.86 µM)
MIC [4]: 0.5 µg/mL (≈ 0.93 µM)
MIC [5]: 1 µg/mL (≈ 1.86 µM)
MIC [6]: > 32 µg/mL

CC(=O)NC[C@H]1CN(c2ccc(N3CCOCC3)c(F)c2)C(=O)O1 [LINEZOLID]
MIC [2]: 1 µg/mL (≈ 2.96 µM)
MIC [8]: 32 µg/mL (≈ 94.9 µM)
MIC [5]: 2 µg/mL (≈ 5.93 µM)
MIC [9]: 32 µg/mL (≈ 94.9 µM)
MIC [10]: 4 µg/mL (≈ 11.9 µM)
MIC [6]: 8 µg/mL (≈ 23.7 µM)
ED50 [7]: 5.3 mg/kg
AUC(0-t) [11]: 11000 ng·h/mL
Tmax [12]: 0.25 h
Cmax [13]: 6310 ng/mL
half-life [14]: 1.37 h
k el [15]: 0.000142 s⁻¹
